According to patent US20230257393A1, “MACROMOLECULE-SUPPORTED THIENOAZEPINE COMPOUNDS, AND USES THEREOF” (BOLT BIOTHERAPEUTICS, INC., priority 2020, published 2023):
pEC50: −log10 of the molar value.

Biological target: T1, human TLR7 (Homo sapiens, UniProt Q9NYK1)
T1 construct: host or cells: HEK293 reporter cells
T1 sequence (Q9NYK1 27-1049): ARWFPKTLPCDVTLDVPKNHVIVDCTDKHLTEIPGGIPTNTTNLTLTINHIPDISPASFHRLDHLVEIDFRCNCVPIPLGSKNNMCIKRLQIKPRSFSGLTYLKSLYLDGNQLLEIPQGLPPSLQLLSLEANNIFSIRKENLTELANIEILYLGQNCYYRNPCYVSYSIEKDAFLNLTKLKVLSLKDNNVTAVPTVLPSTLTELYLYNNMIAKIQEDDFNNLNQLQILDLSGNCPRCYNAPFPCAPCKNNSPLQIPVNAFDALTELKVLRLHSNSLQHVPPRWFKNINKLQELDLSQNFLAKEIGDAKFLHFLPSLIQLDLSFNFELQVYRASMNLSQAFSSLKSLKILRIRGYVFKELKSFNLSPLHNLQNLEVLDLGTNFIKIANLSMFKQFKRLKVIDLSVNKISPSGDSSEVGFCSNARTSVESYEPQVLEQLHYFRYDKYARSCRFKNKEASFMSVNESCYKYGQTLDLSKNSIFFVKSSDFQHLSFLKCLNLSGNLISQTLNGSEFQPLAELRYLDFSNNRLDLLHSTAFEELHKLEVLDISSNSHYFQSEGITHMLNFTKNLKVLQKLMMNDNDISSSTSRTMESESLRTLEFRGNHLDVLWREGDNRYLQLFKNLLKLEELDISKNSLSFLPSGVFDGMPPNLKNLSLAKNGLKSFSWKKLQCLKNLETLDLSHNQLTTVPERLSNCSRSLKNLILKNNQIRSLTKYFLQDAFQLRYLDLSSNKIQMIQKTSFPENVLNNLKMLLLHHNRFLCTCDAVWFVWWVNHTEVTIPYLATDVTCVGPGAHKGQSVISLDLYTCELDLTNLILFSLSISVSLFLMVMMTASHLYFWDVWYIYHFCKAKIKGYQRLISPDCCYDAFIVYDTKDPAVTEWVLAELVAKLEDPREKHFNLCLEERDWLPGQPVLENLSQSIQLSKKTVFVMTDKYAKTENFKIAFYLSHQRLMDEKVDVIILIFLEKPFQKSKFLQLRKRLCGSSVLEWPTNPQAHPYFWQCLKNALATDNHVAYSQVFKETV
Experiment: HEK Reporter Assay, HEK293 NFKB reporter cells expressing human TLR7
Assay type: cell-based
Conditions: Table 1a, read-out: HEK293 hTLR7 EC50
Protocol: Each compound was synthesized, purified, and characterized by mass spectrometry and shown to have the mass indicated. Additional experimental procedures are found in the Examples. Activity against HEK293 NFKB reporter cells expressing human TLR7 or human TLR8 was measured according to Example 202.
HEK293 reporter cells expressing human TLR7 or human TLR8 were purchased from Invivogen and vendor protocols were followed for cellular propagation and experimentation. Briefly, cells were grown to 80-85% confluence at 5% CO2 in DMEM supplemented with 10% FBS, Zeocin, and Blasticidin. Cells were then seeded in 96-well flat plates at 4×10^4 cells/well with substrate containing HEK detection medium and immunostimulatory molecules. Activity was measured using a plate reader at 620-655 nm wavelength.

Row | Structure (SMILES) | pEC50
1 | CCCN(CCC)C(=O)C1=Cc2sccc2N=C(N)C1 [TAZ-2, 5-amino-N,N-dipropyl-6H-thieno[3,2-b]azepine-7-carboxamide] | < 5.05
2 | CCCN(CCC)C(=O)C1=Cc2sc(CCCCCN)cc2N=C(N)C1 [TAZ-14, 5-amino-2-(5-aminopentyl)-N,N-dipropyl-6H-thieno [3,2-b]azepine-7-carboxamide] | < 5.05
3 | CCCN(CC#CCNC(=O)OC(C)(C)C)C(=O)C1=Cc2sccc2N=C(N)C1 [TAZ-16, tert-butyl N-[4-[(5-amino-6H-thieno[3,2-b]azepine-7-carbonyl)-propyl-amino]but-2-ynyl]carbamate] | < 5.05
4 | CCCN(CC#CCN)C(=O)C1=Cc2sccc2N=C(N)C1 [TAZ-17, 5-amino-N-(4-aminobut-2-ynyl)-N-propyl-6H-thieno[3,2-b]azepine-7-carboxamide] | < 5.05
5 | CCCN(Cc1ccc(CN)cc1)C(=O)C1=Cc2sccc2N=C(N)C1 [TAZ-30, 5-amino-N-(4-(aminomethyl)benzyl)-N-propyl-6H-thieno[3,2-b]azepine-7-carboxamide] | < 5.05

Same assay, conditions: Table 1b, read-out: HEK293 hTLR7 EC50

Row | Structure (SMILES) | pEC50
6 | CCCN(Cc1ccc(CNC)cc1)C(=O)C1=Cc2sc(CCCCCN(C)C)cc2N=C(N)C1 [TAZ-65, 5-amino-2-[5-(dimethylamino)pentyl]-N-[[4-(methylaminomethyl)phenyl]methyl]-N-propyl-6H-thieno[3,2-b]azepine-7-carboxamide] | < 5.05
7 | CCCN(C[C@H]1C[C@H](CN)C1)C(=O)C1=Cc2sccc2N=C(N)C1 [TAZ-69] | < 5.05
8 | CCCN(CCC)C(=O)C1=Cc2sc(COCCN)cc2N=C(N)C1 [TAZ-81] | < 5.05
9 | CCCN(CCC)C(=O)C1=Cc2sc(CNC(=O)CN)cc2N=C(N)C1 [TAZ-92] | < 5.05

Same assay, conditions: Table 1c, read-out: HEK293 hTLR7 EC50

Row | Structure (SMILES) | pEC50
10 | CCCN(C[C@H]1CC[C@@H](CN)CC1)C(=O)C1=Cc2sccc2N=C(N)C1 [TAZ-118] | ≤ 5.05
11 | CCCN(Cc1cnc(CN(C)C)c(C(F)(F)F)c1)C(=O)C1=Cc2sc(CCCCCN)cc2N=C(N)C1 [TAZ-127] | ≤ 5.05
12 | CCCN(CCCNC(=O)OC1CCC1)C(=O)C1=Cc2sc(C#CC3CCN(C(=O)OC(C)(C)C)CC3)cc2N=C(N)C1 [TAZ-165] | ≤ 5.05
13 | CCCN(CCC)C(=O)C1=Cc2scc(C)c2N=C(N)C1 [TAZ-168] | ≤ 5.05
14 | CCCN(OCC)C(=O)C1=Cc2sc(CC3CCN(C(=O)OC(C)(C)C)CC3)cc2N=C(N)C1 [TAZ-179] | ≤ 5.05
15 | CCCN(OCC)C(=O)C1=Cc2sc(C#CC3CN(C(=O)OC(C)(C)C)C3)cc2N=C(N)C1 [TAZ-187] | ≤ 5.05
16 | CCCN(OCC)C(=O)C1=Cc2sc(C#CC3(O)CN(C(=O)OC(C)(C)C)C3)cc2N=C(N)C1 [TAZ-188] | ≤ 5.05
17 | CCCN(OCC)C(=O)C1=Cc2sc(CN3Cc4ccc(NC(=O)CCN)cc4C3)cc2N=C(N)C1 [TAZ-201] | ≤ 5.05
18 | CCCN(OCC)C(=O)C1=Cc2sc(CN3CC(CN)C3)cc2N=C(N)C1 [TAZ-211] | ≤ 5.05
19 | CCCN(OCC)C(=O)C1=Cc2sc(CN3CCN(c4cccc(C(=O)OC(C)(C)C)c4)CC3)cc2N=C(N)C1 [TAZ-216] | ≤ 5.05
20 | CCCN(OCC)C(=O)C1=Cc2sc(CN3C[C@@H]4CN(C(=O)OC(C)(C)C)C[C@@H]4C3)cc2N=C(N)C1 [TAZ-242] | ≤ 5.05
21 | CCCN(OCC)C(=O)C1=Cc2sc(CN3CCC(N)CC3)cc2N=C(N)C1 [TAZ-243] | ≤ 5.05
22 | CCCN(OCC)C(=O)C1=Cc2sc(CN3CC4(CCN4Cc4ccccc4)C3)cc2N=C(N)C1 [TAZ-246] | ≤ 5.05
23 | CCCN(OCC)C(=O)C1=Cc2sc(CN3C[C@H]4CNC[C@H]4C3)cc2N=C(N)C1 [TAZ-247] | ≤ 5.05
24 | CCCN(OCC)C(=O)C1=Cc2sc(CN3C[C@H]4CN(C(=O)OC(C)(C)C)C[C@@H]4C3)cc2N=C(N)C1 [TAZ-248] | ≤ 5.05
25 | CCCN(Cc1ncco1)C(=O)C1=Cc2sc(CC3CNC3)cc2N=C(N)C1 [TAZ-256] | ≤ 5.05
